Measured values published in US11103582B2, “Method to achieve extended expression of DNA infused into liver” (IMMUSOFT CORPORATION, priority 2012, dated 2021).

System: Kupffer cells
Details: Dog #17: dexamethasone 1 mg/kg days −1, 0, 2, 4 then twice weekly + cyclophosphamide 10 mg/kg day 0 then weekly; no GdCl3; pKT2/CLP-cSEAP//PGK-SB100x into LHV
Description: Infusions of pKT2/clp-cSEAP//PGK-SB100x (FIG. 2) into the left hepatic vein were carried out as described in the text, collecting plasma samples before, during and after the infusion procedure and assaying for heat stable alkaline phosphatase activity.

Compound	Time after which cSEAP expression was extinguished
O=P1(N(CCCl)CCCl)NCCCO1 (centres unmarked) [Cyclophosphamide]	about 4 weeks
C[C@@H]1C[C@H]2[C@@H]3CCC4=CC(=O)C=C[C@]4(C)[C@@]3(F)[C@@H](O)C[C@]2(C)[C@@]1(O)C(=O)CO [Dexamethasone]	about 4 weeks
